Values quoted from earlier work as cited in patent US6485514B1 (priority 1997, dated 2002).
Like-named read-outs stand apart in the source and are kept apart here.

Assays:
[1] = system: human colon cancer xenografts
[2] = administered intravenously, clinical trials
[3] = cremaphor vehicle, 6-hour IV infusion
[4] = system: drug-refractory ovarian cancer; settings: in vivo
[5] = patients

## CC[C@@]1(O)C(=O)OCc2c1cc1n(c2=O)Cc2cc3c(N)cccc3nc2-1 [9AC, 9-Amino-20(S)-Camptothecin]
[1]
  anticancer activity against human colon cancer xenografts: high anticancer activity

## CC[C@@]1(O)C(=O)OCc2c1cc1n(c2=O)Cc2cc3cc4c(cc3nc2-1)OCO4 [10,11 MD, 10,11-Methylendioxy-20(S)-Camptothecin]
[1]
  anticancer activity against human colon cancer xenografts: high anticancer activity

## CC[C@@](O)(C(=O)[O-])c1cc2n(c(=O)c1CO)Cc1cc3ccccc3nc1-2.[Na+] [CPT Na+, Camptothecin Sodium Salt]
[2]; listed as sodium salt of CPT
  clinical outcome (toxicity and potency): high toxicity and low potency
[2]; Sodium Salt
  clinical outcome (toxicity and potency): ineffectiveness and the toxicity

## CC(=O)O[C@H]1C(=O)[C@@]2(C)[C@H]([C@H](OC(=O)c3ccccc3)[C@]3(O)C[C@H](OC(=O)[C@H](O)[C@@H](NC(=O)c4ccccc4)c4ccccc4)C(C)=C1C3(C)C)[C@]1(OC(C)=O)CO[C@@H]1C[C@@H]2O [taxol]
[3]
  dose-limiting toxicity: neurotoxicity and leucopenia were dose-limiting
[4]
  activity against drug-refractory ovarian cancer: active agent
[5]; 6-hour IV infusion every 21 days
  maximum tolerated dose: 275 mg/m^2
[5]; 6-hour IV infusion
  dose-limiting toxicity: Myelosuppression was dose-limiting
